Assay results reported in publication PMC11547505 (Molecules, 2024).
Where two headings read alike, the source gives them in different places.

How the values were obtained:
SARS-CoV-2 2′-O-MTase = biological target: SARS-CoV-2 2′-O-MTase; design: method as in PMID 33874769; conditions: control nucleoside-based methyltransferase inhibitor; read-out: 2′-O-MTase Inhibition IC50; cited from earlier work
SARS-CoV-2 [1] = system: SARS-CoV-2; design: method as in PMID 33290767, PMID 35456990, PMID 33671463; conditions: Vero cells; read-out: IC50 against SARS-CoV-2; cited from earlier work
in vitro [2] = experiment: in vitro
SARS-CoV-2 [3] = experiment: Anti-SARS-CoV-2 virus yield reduction assay (qRT-PCR) on Vero cells; conditions: for Anti-SARS-CoV-2 Activity, % Inhibition at 10 µM: 0.1 MOI, virus yield reduction qRT-PCR; for EC50: read-out: Anti-SARS-CoV-2 Activity, EC50, antiviral dose–response, 2 days post-treatment
in vitro [4] = conditions: African green monkey
[5] = biological target: SARS-CoV-2 2′-O-MTase (Nsp10–16) (Severe acute respiratory syndrome coronavirus 2, UniProt P0DTD1); experiment: MTaseGlo coupled assay of Nsp10–16 RNA methyltransferase activity; assay type: biochemical; conditions: 25 nM Nsp10–16, 300 nM Cap-0 RNA, 5 µM SAM, 15 min; read-out: 2′-O-MTase Inhibition IC50
[6] = peripheral blood mononuclear (PBM) cells

Nc1ncnc2c1ncn2[C@@H]1O[C@H](C[C@@H](N)CC[C@H](N)C(=O)O)[C@@H](O)[C@H]1O [Sinefungin]
IC50 (SARS-CoV-2 2′-O-MTase): 3.4 ± 0.4 µM

CCCCCc1cc(O)c2c(c1)OC(C)(C)[C@@H]1CCC(C)=C[C@@H]21 [Δ^9-THC, delta-9-tetrahydrocannabinol]
IC50 (SARS-CoV-2 [1]): 10.3 µM

CC1=CC[C@@H]2[C@@H](C1)c1cc(C(=O)c3ccc(O)cc3O)c(O)cc1OC2(C)C [TPM-2, (2,4-dihydroxyphenyl)((6aR,10aR)-3-hydroxy-6,6,9-trimethyl-6a,7,10,10a-tetrahydro-6H-benzo[c]chromen-2-yl)methanone]
CC50 (in vitro [2]; [6]): 34.9 µM | Anti-SARS-CoV-2 Activity, % Inhibition at 10 µM (SARS-CoV-2 [3]): 98.9% | EC50 (SARS-CoV-2 [3]): 7.8 µM | CC50 (in vitro [4]; Vero cells (kidney)): 45.2 µM | IC50 [5]: 6.4 ± 1.5 µM

Cc1ccc2c(c1)-c1cc(C(=O)c3ccc(O)cc3O)c(O)cc1OC2(C)C [CPM-2, (2,4-dihydroxyphenyl)(3-hydroxy-6,6,9-trimethyl-6H-benzo[c]chromen-2-yl)methanone]
CC50 (in vitro [2]): 41.2 µM | Anti-SARS-CoV-2 Activity, % Inhibition at 10 µM (SARS-CoV-2 [3]): 98.1% | EC50 (SARS-CoV-2 [3]): 8.6 µM | CC50 (in vitro [4]): 55.4 µM | IC50 [5]: 6.7 ± 0.5 µM

C=C(C)[C@@H]1CCC(C)=C[C@H]1c1c(O)cc(CCCCC)cc1O [CBD, cannabidiol]
IC50 (SARS-CoV-2 [1]): 7.9 µM

Cc1ccc2c(c1)-c1c(ccc(C(=O)c3ccc(O)cc3O)c1O)OC2(C)C [CPM-1, (2,4-dihydroxyphenyl)(1-hydroxy-6,6,9-trimethyl-6H-benzo[c]chromen-2-yl)methanone]
CC50 (in vitro [2]): > 100 µM | Anti-SARS-CoV-2 Activity, % Inhibition at 10 µM (SARS-CoV-2 [3]): 98.9% | EC50 (SARS-CoV-2 [3]): 7.65 µM | CC50 (in vitro [4]): > 100 µM | IC50 [5]: 1.5 ± 0.2 µM

CC1=CC[C@@H]2[C@@H](C1)c1c(ccc(C(=O)c3ccc(O)cc3O)c1O)OC2(C)C [TPM-1, (2,4-dihydroxyphenyl)((6aR,10aR)-1-hydroxy-6,6,9-trimethyl-6a,7,10,10a-tetrahydro-6H-benzo[c]chromen-2-yl)methanone]
CC50 (in vitro [2]; [6]): 59.2 µM | Anti-SARS-CoV-2 Activity, % Inhibition at 10 µM (SARS-CoV-2 [3]): 99.3% | EC50 (SARS-CoV-2 [3]): 4.3 µM | CC50 (in vitro [4]; Vero cells (kidney)): 13.2 µM | IC50 [5]: 2.8 ± 0.5 µM

CCC(CC)COC(=O)[C@H](C)N[P@](=O)(OC[C@H]1O[C@@](C#N)(c2ccc3c(N)ncnn23)[C@H](O)[C@@H]1O)Oc1ccccc1 [Remdesivir, reference compound]
CC50 (in vitro [2]; [6]): 2 µM | Anti-SARS-CoV-2 Activity, % Inhibition at 10 µM (SARS-CoV-2 [3]): 99.9% | EC50 (SARS-CoV-2 [3]): 2.3 µM | CC50 (in vitro [4]; Vero cells (kidney)): > 100 µM
